From patent publication US9975878B2, “Substituted triazine BMI-1 inhibitors” (PTC Therapeutics, Inc., priority 2013, dated 2018)

Tested on: Bmi-1 protein
Assay: Sandwich ELISA Assay: Bmi-1 protein level in HT-1080 cells treated with test compounds
Assay type: cell-based
Description: Cell Seeding and Compound Treatment (Day 1):
HT-1080 cells were seeded at 8000 cells/well (50 μL) in 96-well tissue culture plates. After the cells became adherent (3-4 hours), 2× diluted stocks of test compounds in 50 μL DMEM containing 1% DMSO (final DMSO concentration was 0.5%) were added and the plates were incubated at 37° C. under 5% CO2 for 40-48 hours.
ELISA Plate First Antibody Preparation (Day 2):
The First Antibody (Millipore Mouse, monoclonal to mouse Bmi-1, clone F6, catalog #05-637) diluted to 2 μg/mL in PBS was added (100 μL) to each well of a Nunc MaxiSorp 96-well ELISA plate. The plate was covered with a plate seal and allowed to stand overnight.
Cell Lysate Preparation (Day 3):
Fresh Lysis buffer (1×) was prepared on the day of the assay as follows: 1 mM EDTA, 150 mM NaCl, 0.5% Triton-X 100, 10 mM NaF, 20 mM B-Glycerophosphate, 1 mM DTT (in PBS, pH 7.2-7.4) and HALT protease inhibitor cocktail (1×) (Pierce #78410).
Lysis Buffer (1×, 40 μL) was added to each well and the plate was shaken for 5-10 minutes on an orbital shaker to allow cell lysis, then diluent (1% BSA in PBS in 0.5% NP40) (100 μL) was added to each well.
A standard curve was prepared at the following Bmi-1 concentrations: 8000, 4000, 2000, 1000, 500, 250, 125 and 0 pg/mL. The Bmi-1 Recombinant Protein Standard (Novus Biologicals PCGF4 Recombinant Protein (P01), catalog # H00000648-P01) used to prepare the standard curve was stored at −80° C. On first thaw, the Recombinant Protein Standard was diluted to 10 μg/μL in Blocking Buffer (1% BSA in PBS; BSA: Fisher Scientific Catalog #1600-100). Aliquots were taken and refrozen at −80° C. The aliquots may be kept at 4° C. and reused after first thaw, but only within 1-2 weeks. The Recombinant Protein Standard contains a GST-fusion tag that appears at approximately 70 Kda on Western Blot.
The prepared ELISA plate was washed 3× with Wash Buffer (0.05% Tween-20 in PBS). The final wash was removed from the plate and the plate was blotted dry. Blocking Buffer (300 μL) (1% BSA in PBS) was added to each well. The plate was covered with a plate seal and incubated at room temperature for 1 hour. The blocked plate was washed 3× with Wash Buffer, then the final wash was removed and the plate was blotted dry. The previously prepared samples and standards were added (100 μL/well) and the plate was covered with a plate seal and incubated at 4° C. overnight.
The prepared ELISA plate was removed from incubation and allowed to stand at room temperature for 30 minutes, then washed and blotted dry. The Second Antibody (Cell Signaling Rabbit anti-Bmi-1, Cat# 2830) diluted to 1:600 in Blocking Buffer was added (100 μL) to each well, except as needed for background control wells. The plate was covered with a plate seal and incubated for 1.5 hrs at room temperature.
The ELISA plate was washed and blotted dry as previously described. The Third Antibody (Cell Signaling HRP conjugated anti-rabbit IgG (CellSignaling, Cat#:7074) diluted to 1:300 in Blocking Buffer was added (100 μL) to each well, except as needed for background control wells. The plate was incubated for 1 hr at room temperature.
The plate was washed and blotted dry, then a previously prepared TMB substrate (TMB substrate kit, Pierce catalog #34021) (prepared by mixing kit reagents 1:1) (100 μL) was added per well. The plate was incubated for 20-30 minutes at room temperature in the dark, then Stop Solution (2 M sulfuric acid in water) (50 μL) was added per well. The plates were read at OD450 (experimental) and OD570 (reference).

Row | SMILES | EC50 [nM]
1 | CCc1nc2ccccc2n1-c1nc(N)nc(Nc2ccc(OC(F)F)cc2)n1 [Cpd 31, N-[4-(difluoromethoxy)phenyl]-6-(2-ethyl-1H-benzimidazol-1-yl)-1,3,5-triazine-2,4-diamine] | 10 to 100
2 | Cc1nc2ncc(Br)cc2n1-c1nc(N)nc(Nc2ccc(C(F)(F)F)cc2)n1 [Cpd 32, 6-(6-bromo-2-methyl-1H-imidazo[4,5-b]pyridin-1-yl)-N-[4-(trifluoromethyl)phenyl]-1,3,5-triazine-2,4-diamine] | 10 to 100
3 | Cc1nc2ncc(Cl)cc2n1-c1nc(N)nc(Nc2ccc(C(F)(F)F)cc2)n1 [Cpd 33, 6-(6-chloro-2-methyl-1H-imidazo[4,5-b]pyridin-1-yl)-N-[4-(trifluoromethyl)phenyl]-1,3,5-triazine-2,4-diamine] | 10 to 100
4 | Cc1nc2ncc(Br)cc2n1-c1nc(NCCO)nc(Nc2ccc(C(F)(F)F)cc2)n1 [Cpd 34, 2-{[4-(6-bromo-2-methyl-1H-imidazo[4,5-b]pyridin-1-yl)-6-{[4-(trifluoromethyl)phenyl]amino}-1,3,5-triazin-2-yl]amino}ethanol] | 100 to 3000
5 | Cc1nc2ncc(Cl)cc2n1-c1nc(NCCO)nc(Nc2ccc(C(F)(F)F)cc2)n1 [Cpd 35, 2-{[4-(6-chloro-2-methyl-1H-imidazo[4,5-b]pyridin-1-yl)-6-{[4-(trifluoromethyl)phenyl]amino}-1,3,5-triazin-2-yl]amino}ethanol] | 100 to 3000
6 | Nc1nc(Nc2ccc(C(F)(F)F)cc2)nc(-n2c(C3CC3)nc3ncc(F)cc32)n1 [Cpd 36, 6-(2-cyclopropyl-6-fluoro-1H-imidazo[4,5-b]pyridin-1-yl)-N-[4-(trifluoromethyl)phenyl]-1,3,5-triazine-2,4-diamine] | 100 to 3000
7 | CCc1nc2ccccc2n1-c1nc(N)nc(Nc2ccc(OC(F)F)c(F)c2)n1 [Cpd 37, N-[4-(difluoromethoxy)-3-fluorophenyl]-6-(2-ethyl-1H-benzimidazol-1-yl)-1,3,5-triazine-2,4-diamine] | 10 to 100
8 | Cc1nc2ncc(Br)cc2n1-c1nc(N)nc(Nc2ccc(OC(F)F)cc2)n1 [Cpd 38, 6-(6-bromo-2-methyl-1H-imidazo[4,5-b]pyridin-1-yl)-N-[4-(difluoromethoxy)phenyl]-1,3,5-triazine-2,4-diamine] | 10 to 100
9 | Cc1nc2ncc(Br)cc2n1-c1nc(N)nc(Nc2ccc(OC(F)F)c(F)c2)n1 [Cpd 39, 6-(6-bromo-2-methyl-1H-imidazo[4,5-b]pyridin-1-yl)-N-[4-(difluoromethoxy)-3-fluorophenyl]-1,3,5-triazine-2,4-diamine] | 10 to 100
10 | Cc1nc2ncc(Cl)cc2n1-c1nc(N)nc(Nc2ccc(OC(F)F)cc2)n1 [Cpd 40, 6-(6-chloro-2-methyl-1H-imidazo[4,5-b]pyridin-1-yl)-N-[4-(difluoromethoxy)phenyl]-1,3,5-triazine-2,4-diamine] | 10 to 100
11 | Cc1nc2ncc(Cl)cc2n1-c1nc(N)nc(Nc2ccc(OC(F)F)c(F)c2)n1 [Cpd 41, 6-(6-chloro-2-methyl-1H-imidazo[4,5-b]pyridin-1-yl)-N-[4-(difluoromethoxy)-3-fluorophenyl]-1,3,5-triazine-2,4-diamine] | 10 to 100
12 | Nc1nc(Nc2ccc(C(F)(F)F)cc2)nc(-n2c(C3CC3)nc3ccccc32)n1 [Cpd 42, 6-(2-cyclopropyl-1H-benzimidazol-1-yl)-N-[4-(trifluoromethyl)phenyl]-1,3,5-triazine-2,4-diamine] | 10 to 100
13 | Nc1nc(Nc2ccc(OC(F)F)cc2)nc(-n2c(C3CC3)nc3ccccc32)n1 [Cpd 43, 6-(2-cyclopropyl-1H-benzimidazol-1-yl)-N-[4-(difluoromethoxy)phenyl]-1,3,5-triazine-2,4-diamine] | 10 to 100
14 | Nc1nc(Nc2ccc(OC(F)F)c(F)c2)nc(-n2c(C3CC3)nc3ccccc32)n1 [Cpd 44, 6-(2-cyclopropyl-1H-benzimidazol-1-yl)-N-[4-(difluoromethoxy)-3-fluorophenyl]-1,3,5-triazine-2,4-diamine] | 10 to 100
15 | CCc1nc2c(F)cc(F)cc2n1-c1nc(N)nc(Nc2ccc(C(F)(F)F)cc2)n1 [Cpd 45, 6-(2-ethyl-4,6-difluoro-1H-benzimidazol-1-yl)-N-[4-(trifluoromethyl)phenyl]-1,3,5-triazine-2,4-diamine] | 10 to 100
16 | Cc1nc2c(F)cc(F)cc2n1-c1nc(N)nc(Nc2ccc(C(F)(F)F)cc2)n1 [Cpd 46, 6-(4,6-difluoro-2-methyl-1H-benzimidazol-1-yl)-N-[4-(trifluoromethyl)phenyl]-1,3,5-triazine-2,4-diamine] | 100 to 3000
17 | Cc1nc2c(F)cc(F)cc2n1-c1nc(N)nc(Nc2ccc(OC(F)F)cc2)n1 [Cpd 47, N-[4-(difluoromethoxy)phenyl]-6-(4,6-difluoro-2-methyl-1H-benzimidazol-1-yl)-1,3,5-triazine-2,4-diamine] | 10 to 100
18 | Cc1nc2c(F)cc(F)cc2n1-c1nc(N)nc(Nc2ccc(OC(F)F)c(F)c2)n1 [Cpd 48, N-[4-(difluoromethoxy)-3-fluorophenyl]-6-(4,6-difluoro-2-methyl-1H-benzimidazol-1-yl)-1,3,5-triazine-2,4-diamine] | 10 to 100
19 | CCc1nc2c(F)cc(F)cc2n1-c1nc(N)nc(Nc2ccc(OC(F)F)cc2)n1 [Cpd 49, N-[4-(difluoromethoxy)phenyl]-6-(2-ethyl-4,6-difluoro-1H-benzimidazol-1-yl)-1,3,5-triazine-2,4-diamine] | 10 to 100
20 | CCc1nc2c(F)cc(F)cc2n1-c1nc(N)nc(Nc2ccc(OC(F)F)c(F)c2)n1 [Cpd 50, N-[4-(difluoromethoxy)-3-fluorophenyl]-6-(2-ethyl-4,6-difluoro-1H-benzimidazol-1-yl)-1,3,5-triazine-2,4-diamine] | 10 to 100
21 | Cc1nc2ccccc2n1-c1nc(N)nc(Nc2ccc(C(F)(F)F)nc2)n1 [Cpd 51, 6-(2-methyl-1H-benzimidazol-1-yl)-N-[6-(trifluoromethyl)pyridin-3-yl]-1,3,5-triazine-2,4-diamine] | 10 to 100
22 | Cc1nc2cc(F)ccc2n1-c1nc(N)nc(Nc2ccc(C(F)(F)F)nc2)n1 [Cpd 52, 6-(5-fluoro-2-methyl-1H-benzimidazol-1-yl)-N-[6-(trifluoromethyl)pyridin-3-yl]-1,3,5-triazine-2,4-diamine] | 100 to 3000
23 | Cc1nc2ccc(F)cc2n1-c1nc(N)nc(Nc2ccc(C(F)(F)F)nc2)n1 [Cpd 53, 6-(6-fluoro-2-methyl-1H-benzimidazol-1-yl)-N-[6-(trifluoromethyl)pyridin-3-yl]-1,3,5-triazine-2,4-diamine] | 10 to 100
24 | Cc1nc2cc(F)ccc2n1-c1nc(N)nc(Nc2ccc(OC(F)F)c(F)c2)n1 [Cpd 54, N-[4-(difluoromethoxy)-3-fluorophenyl]-6-(5-fluoro-2-methyl-1H-benzimidazol-1-yl)-1,3,5-triazine-2,4-diamine] | 100 to 3000
25 | CCc1nc2ccc(F)cc2n1-c1nc(N)nc(Nc2ccc(C(F)(F)F)cc2)n1 [Cpd 55, 6-(2-ethyl-6-fluoro-1H-benzimidazol-1-yl)-N-[4-(trifluoromethyl)phenyl]-1,3,5-triazine-2,4-diamine] | 10 to 100
26 | CCc1nc2ccc(F)cc2n1-c1nc(N)nc(Nc2ccc(OC(F)F)cc2)n1 [Cpd 56, N-[4-(difluoromethoxy)phenyl]-6-(2-ethyl-6-fluoro-1H-benzimidazol-1-yl)-1,3,5-triazine-2,4-diamine] | 10 to 100
27 | CCc1nc2ccc(F)cc2n1-c1nc(N)nc(Nc2ccc(OC(F)F)c(F)c2)n1 [Cpd 57, N-[4-(difluoromethoxy)-3-fluorophenyl]-6-(2-ethyl-6-fluoro-1H-benzimidazol-1-yl)-1,3,5-triazine-2,4-diamine] | 10 to 100
28 | CCc1nc2cc(F)ccc2n1-c1nc(N)nc(Nc2ccc(C(F)(F)F)cc2)n1 [Cpd 58, 6-(2-ethyl-5-fluoro-1H-benzimidazol-1-yl)-N-[4-(trifluoromethyl)phenyl]-1,3,5-triazine-2,4-diamine] | 10 to 100
